Experimental data published in patent US20220160652A1, “USE OF VITAMIN K IN COMBINATION WITH ANTICOAGULANTS” (KAYDENCE PHARMA AS, priority 2019, published 2022).
“Also recorded” adds a separate entry of the source.

Tests used:
[1] = tested on: transgenic Ren-2 rats [TGR(mREN-2)27]; experiment: T-TAS thrombus formation in whole blood of treated TGR (Ren-2) rats; format: in vivo, rat; conditions: vitamin K2 (MK-7) added
Experimental: This experiment was conducted in order to evaluate the effects of vitamin K2 (MK-7) on the anticoagulant activity of the new oral anticoagulants (NOAC) rivaroxaban and dabigatran using the T-TAS Total Thrombus-formation Analysis System. The T-TAS Total Thrombus-formation Analysis System is a microchip-based flow chamber system capable of evaluating whole-blood thrombogenicity. It is a useful tool in monitoring the efficacy of anticoagulants on thrombus formation and predicting the risk of bleeding complications. […] Four days before the start of the treatment, the first part of animals' body weight and food intake was measured in selected representative three cages (rats n=9) to calculate the appropriate amount of tested compounds required for addition to the diet to obtain the dosing indicated in Table 1. […] The body mass of the rats was measured at the beginning and at the end of treatment. At the beginning and at the end of treatment, the food intake per day was measured in representative group of animals to monitor the daily dosing of tested compounds (per kg of body mass). The thrombus formation in vitro was measured in whole blood using a microchip-based flow chamber system according to manufacturers' protocol (Total Thrombus-formation Analyser System, T-TAS; Fujimori Kogyo Co., Ltd., Tokyo, Japan). […]

VSMCs [2] = experiment: Vitamin K2 (MK-7) and hypoxia: ATP on co-treatment with CoCl2; format: cell-based; conditions: co-treatment CoCl2 100 μM and 10 μM, 24 hours
Experimental: This study was performed to investigate whether vitamin K2 (MK-7) can prevent the hypoxia-induced decrease in ATP (CoCl2 treatment, thereby stabilization of HIF1a). To perform this study, VSMCs were co-treated with CoCl2 and vitamin K2 (MK-7).
First, VSCMs (5000 cells/well) were plated in 96-well plates and left to adhere overnight. Next, cells were incubated for 24 hours with either CoCl2 (100 μM) or CoCl2 and vitamin K2 (MK-7) or UQ10 together (100 and 10 μM, respectively). Next, ATP was measured and corrected for cell numbers. CoCl2 values were set as relative to CoCl2 co-treated with vitamin K2 (MK-7) or UQ10. Hoechst was added to correct for cell number (1 μg/mL). Next, ATP was measured using mammalian lysis buffer for 5 minutes after which 50 μL ATP substrate solution was added to the wells and incubated for 10 minutes in a dark environment. Finally, medium was transferred to a white plate to measure luminescence.

Sprague-Dawley rats = experiment: T-TAS thrombus formation in whole blood of treated Sprague-Dawley rats; format: in vivo, rat; conditions: added to dabigatran and to rivaroxaban
Experimental: This experiment was conducted in order to evaluate the effects of vitamin K2 (MK-7) on the anticoagulant activity of the new oral anticoagulants (NOAC) rivaroxaban and dabigatran using the T-TAS Total Thrombus-formation Analysis System. The T-TAS Total Thrombus-formation Analysis System is a microchip-based flow chamber system capable of evaluating whole-blood thrombogenicity. It is a useful tool in monitoring the efficacy of anticoagulants on thrombus formation and predicting the risk of bleeding complications. To perform the study, 45 wild-type male Sprague-Dawley and 45 transgenic male Ren-2 rats [TGR(mREN-2)27] at the age of 10-11 weeks at the beginning of the treatment period were purchased from animal facility IKEM-CEM Institute of Clinical and Experimental Medicine (Prague, Czech Republic). All animals in the experiment were housed in individually ventilated cages (2-3 rats per cage) and kept in the animal rooms of JCET at a relative humidity of 55±10%, a temperature of 22±2 ° C., and a light cycle of 7 AM to 7 PM. The rats had free access to food and water. After delivery, animals were randomly divided into 10 experimental groups (5 or 10 rats per group), as indicated below in Table 1. Four days before the start of the treatment, the first part of animals' body weight and food intake was measured in selected representative three cages (rats n=9) to calculate the appropriate amount of tested compounds required for addition to the diet to obtain the dosing indicated in Table 1. It was estimated that food intake was approximately 30 g of chow per rat per day. […] The body mass of the rats was measured at the beginning and at the end of treatment. At the beginning and at the end of treatment, the food intake per day was measured in representative group of animals to monitor the daily dosing of tested compounds (per kg of body mass). The thrombus formation in vitro was measured in whole blood using a microchip-based flow chamber system according to manufacturers' protocol (Total Thrombus-formation Analyser System, T-TAS; Fujimori Kogyo Co., Ltd., Tokyo, Japan). […]

VSMCs [3] = experiment: Warfarin-induced oxidative stress in VSMCs, effect of vitamin K2 (DCFDA); format: cell-based; conditions: 5 hours incubation
Experimental: (§1) It is known that the level of reactive oxygen species in cells can be measured by measuring the conversion of 2′,7′—dichlorofluorescein diacetate (DCFDA) to the fluorescent dye 2′,7′-dichlorofluorescein (DCF). The fluorescence generated by cells subjected to DCFDA is directly proportional to the amount of oxidized DCFDA to DCF.
This study was performed to determine if vitamin K2 (MK-7) reduces warfarin-induced oxidative stress. To perform the study, VSMCs (10,000 cells/well) were plated in a 96-well plate and left to adhere overnight. Next, cells were incubated for 24 hours with 100 μM warfarin. The next day, […] DCFDA was added to the cells for 1 hour. The cells were then incubated for 5 hours with normal medium (baseline), vitamin K2 (MK-7), or warfarin. Fluorescence was measured and fluorescence intensity was normalized for cell count.

VSMCs [4] = experiment: Vitamin K2 (MK-7) effect on ATP over time; format: cell-based; conditions: 10 μM, indicated time points
Experimental: This study was performed to investigate the effect of vitamin K2 (MK-7) on ATP over time. It is known that all cells, including VSMCs, proliferate. The term cell growth is used in the contexts of biological cell development and cell division (reproduction). When used in the context of cell division, it refers to growth of cell populations, where a cell, known as the “mother cell,” grows and divides to produce two “daughter cells” (M phase). When used in the context of cell development, the term refers to increase in cytoplasmic and organelle volume (G1 phase), as well as increase in genetic material (G2 phase) following the replication during S phase. When a cell is quiescent, this phase is called G0. Cell populations go through a particular type of exponential growth called doubling. Each generation of cells should be twice as numerous as the previous generation. However, the number of generations only gives a maximum figure as not all cells survive in each generation.
To perform this study, first, VSCMs (5000 cells/well) were plated in 96-well plates and left to adhere overnight. […] Next, ATP was measured using mammalian lysis buffer for 5 minutes, after which 50 μL ATP substrate solution was added to the wells and incubated for 10 minutes in a dark environment. Finally, medium was transferred to a white plate to measure luminescence.

VSMCs [5] = experiment: Oxidative stress in VSMCs (DCFDA fluorescence); format: cell-based; conditions: 10 μM, fluorescence measured for 6 hours
Experimental: as §1
To perform the study, VSMCs (10,000 cells/well) were plated in a 96-well plate and left to adhere overnight. Next, cells were incubated for 1 hour with 20 μM DCFDA. The medium was then changed to medium supplemented with 10 μM vitamin K2 (MK-7). To visualize intracellular oxidative stress, fluorescence was measured for 6 hours and fluorescence intensity was normalized for cell count.

**Q.** Which results are given for `CC(C)=CCC/C(C)=C/CC/C(C)=C/CC/C(C)=C/CC/C(C)=C/CC/C(C)=C/CC/C(C)=C/CC1=C(C)C(=O)c2ccccc2C1=O` [vitamin K2 (MK-7)]?
**A.** modification of the thrombus formation inhibition by dabigatran and rivaroxaban [1]: did not modify this effect significantly; prevention of hypoxia-induced (CoCl2) decrease in ATP generation (VSMCs [2]): could (partially) prevent the decreased ATP generation; formation of a clot (AUC) on addition of vitamin K2 (MK-7) (Sprague-Dawley rats): did not prevent the formation of a clot; increase of occlusion Time (OT) on addition of vitamin K2 (MK-7) (Sprague-Dawley rats): 5-7%; warfarin-induced oxidative stress in VSMCs (VSMCs [3]; after 24 hours 100 μM warfarin): counteracted the warfarin-induced oxidative stress; also recorded: counteracts intracellular oxidative stress; normal oxidative stress in VSMCs (VSMCs [3]; normal conditions): reduced not only normal oxidative stress; also recorded: counteracts intracellular oxidative stress; ATP production in VSMCs over time (VSMCs [4]): stimulated ATP production in VSMCs; oxidative stress in VSMCs (DCF fluorescence) (VSMCs [5]): clearly reduced the oxidative stress
